From ChEMBL document CHEMBL5034045, “Novel Macrocyclic Peptidylarginine Deiminase Type 4 (PAD4) Inhibitors” (ACS Med Chem Lett, 2022)

Biological target: Protein-arginine deiminase type-4 (Homo sapiens, UniProt Q9UM07)
Experiment: Inhibition of human PAD4 using BAEE as substrate incubated for 30 mins by spectrophotometric based assay

Chain of Protein-arginine deiminase type-4 (Q9UM07 whole entry): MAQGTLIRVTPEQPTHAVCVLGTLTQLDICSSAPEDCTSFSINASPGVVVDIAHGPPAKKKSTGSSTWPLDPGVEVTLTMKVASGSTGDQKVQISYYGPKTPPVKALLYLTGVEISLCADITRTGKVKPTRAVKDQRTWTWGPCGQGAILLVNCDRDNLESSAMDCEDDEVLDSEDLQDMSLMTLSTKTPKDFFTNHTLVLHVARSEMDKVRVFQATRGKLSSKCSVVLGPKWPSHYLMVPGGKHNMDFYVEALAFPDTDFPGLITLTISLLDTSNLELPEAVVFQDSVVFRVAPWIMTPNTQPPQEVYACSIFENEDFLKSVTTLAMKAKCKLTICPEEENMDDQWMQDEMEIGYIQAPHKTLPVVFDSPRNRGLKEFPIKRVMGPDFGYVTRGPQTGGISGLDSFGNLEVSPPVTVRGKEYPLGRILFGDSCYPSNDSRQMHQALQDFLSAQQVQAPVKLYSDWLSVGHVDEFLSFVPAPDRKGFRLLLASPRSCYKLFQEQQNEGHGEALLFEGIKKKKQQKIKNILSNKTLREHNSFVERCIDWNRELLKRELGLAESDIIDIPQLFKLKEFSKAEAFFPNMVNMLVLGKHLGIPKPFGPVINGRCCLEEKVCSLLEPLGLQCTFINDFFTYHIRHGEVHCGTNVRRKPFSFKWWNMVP

| Compound | IC50 [nM] |
| --- | --- |
| [2H]C1([2H])[C@H](N)[C@@H]2CC[C@@H](C2)N1C(=O)c1cc(OC)c2c(c1)nc(-c1cc3ccc4nc3n1CCCCCc1ccccc1C(=O)NC4C)n2C (stereo partly specified) | 5 |
| COc1cc(C(=O)N2C[C@H](N)[C@@H]3CC[C@H]2C3)cc2nc(-c3cc4ccc5nc4n3CCCCCC3[C@H](C(=O)NC5C)C3(F)F)n(C)c12 (stereo partly specified) | 5 |
| CC1NC(=O)c2cc3sccc3nc2CCCCCn2c(-c3nc4cc(C(=O)N5CCC[C@@H](N)[C@H]5C)cc(F)c4n3C3CC3)cc3ccc1nc32 (stereo partly specified) | 5 |
| Cc1ccc2c(n1)CCCCCn1c(-c3nc4cc(C(=O)N5C[C@H](N)[C@@H]6CC[C@H]5C6)cc(F)c4n3C3CC3)cc3ccc(nc31)C(C)NC2=O (stereo partly specified) | 6 |

Next, values leading:

| IC50 [nM] | Compound |
| --- | --- |
| 5 | CC1NC(=O)[C@@H]2C[C@@]2(F)CCCC(F)(F)Cn2c(-c3nc4cc(C(=O)N5CCC[C@@H](N)[C@H]5C)cc(F)c4n3C3CC3)cc3ccc1nc32 (stereo partly specified) |
| 6 | CC1NC(=O)[C@@H]2CC2CCCC(F)(F)Cn2c(-c3nc4cc(C(=O)N5CCC[C@@H](N)[C@H]5C)cc(Cl)c4n3C3CC3)cc3ccc1nc32 (stereo partly specified) |
